Assays:
Format in all cases: physicochemical
[1] = Stability study: XRPD after storage for 7 days
Protocol: Polymorphic Form I of (R)—N-(5-(5-isopropyl-1,2,4-oxadiazol-3-yl)-2,3-dihydro-1H-inden-1-yl)-2-methyl-2H-tetrazole-5-carboxamide was analyzed by XRPD, DSC, TGA, and DVS. […] As shown in the TGA graph, no weight loss prior to degradation, which starts at about 230° C., was observed. […] Chemical stability study of Form I was also performed. XRPD patterns were measured after storage of samples of Form I for 7 days at 40° C./75% RH and 25° C./97% RH.
Polymorphic Form I of (R)—N-(5-(5-isopropyl-1,2,4-oxadiazol-3-yl)-2,3-dihydro-1H-inden-1-yl)-2-methyl-2H-tetrazole-5-carboxamide (500 mg) was suspended in n-propyl acetate (50 vol) and stirred at 50° C. After 10 minutes, a clear solution was obtained. The solvent was removed under reduced pressure (100 ml round-bottom flask). The solid obtained was analyzed by XRPD and determined as a mixture of Form I and Form II. The solid was suspended in n-propyl acetate (40 vol) and stirred at 50° C. After 10 minutes, a clear solution was obtained. The solvent was removed under reduced pressure in a larger flask (250 ml round-bottom flask). The resulting solid was analyzed by XRPD, DSC, TGA, and GVS and determined as Form II. […] As shown in the DSC graph (sample heated at 10° C./min), an endotherm onset at about 133° C., an exotherm onset at about 135° C., and an endotherm onset at about 152° C. were observed. As shown in the TGA graph, a weight loss of about 1.1% between about 83° C. and about 160° C. prior to degradation was observed. […] Chemical stability study of Form II was also performed. XRPD patterns were measured after storage of samples of Form II for 7 days at 40° C./75% RH and 25° C./97% RH.

[2] = Polymorph screening (isothermal maturation, liquid assisted grinding, temperature cycling maturation)
Protocol: Polymorphic Form I of (R)—N-(5-(5-isopropyl-1,2,4-oxadiazol-3-yl)-2,3-dihydro-1H-inden-1-yl)-2-methyl-2H-tetrazole-5-carboxamide (ca. 2 g) was suspended in MeCN:H2O (90 vol) and stirred at 50° C. for 40 minutes. The clear solution was filtered and flash frozen in a dry ice/acetone bath and placed for lyophilisation. The solid isolated was analyzed by XRPD and determined to be poorly crystalline Form I.
Poorly crystalline Form I (ca. 15 mg) was dispensed into HPLC vials. Solvent was added (10 vol) and the samples were shaken/stirred at 50° C. After 6 days, suspensions were filtered through a Millipore filter plate and dried under suction for 30 minutes prior to XPRD analysis.
Polymorphic Form I of (R)—N-(5-(5-isopropyl-1,2,4-oxadiazol-3-yl)-2,3-dihydro-1H-inden-1-yl)-2-methyl-2H-tetrazole-5-carboxamide was dispensed into HPLC vials and two stainless steel grinding balls (3 mm diameter) added. Solvent was added (10 μl) and the samples were subjected to grinding on a Fritsch planetary mill (500 rpm, 2 hour duration). Solids obtained post grinding were analyzed by XRPD. As shown below in Table 5, Form I was obtained from all of the experiments.
Polymorphic Form I of (R)—N-(5-(5-isopropyl-1,2,4-oxadiazol-3-yl)-2,3-dihydro-1H-inden-1-yl)-2-methyl-2H-tetrazole-5-carboxamide (20 mg) was dispensed into HPLC vials. The selected solvent was added (5 vol) to each sample then placed for maturation (RT/50° C., cycled with 4 hours at each temperature). After 2 days, the samples were removed from the maturation chamber. Suspensions were filtered through a Millipore plate and dried under suction for 20 minutes prior to XRPD analysis. Solutions obtained were treated with increasing aliquots of anti-solvent until a suspension was obtained or maximum of 5 eq. had been added. Samples were shaken at 25° C. for 30 minutes. Suspensions obtained after shaking were filtered through a Millipore plate and dried under suction for 20 minutes prior to XRPD analysis. Solutions and samples containing a small amount of solid were shaken at 25° C. overnight with any solutions obtained allowed to evaporate at RT. […]

[3] = Dynamic Vapor Sorption (DVS); conditions: 0-90% RH range, 25° C.
Protocol: DVS data were obtained using a SMS DVS Intrinsic moisture sorption analyzer, controlled by DVS Intrinsic Control software. The sample temperature was maintained at 25° C. by the instrument controls. The humidity was controlled by mixing streams of dry and wet nitrogen, with a total flow rate of 200 ml/min. The relative humidity was measured by a calibrated Rotronic probe (dynamic range of 1.0-100% RH), located near the sample. The weight change, (mass relaxation) of the sample as a function of % RH was constantly monitored by a microbalance (accuracy ±0.005 mg).
Typically, 5-30 mg of sample was placed in a tared mesh stainless steel basket under ambient conditions. The sample was loaded and unloaded at 40% RH and 25° C. (typical room conditions). A moisture sorption isotherm was performed as outlined below (2 scans per complete cycle). The standard isotherm was performed at 25° C. at 10% RH intervals over a 0-90% RH range. Typically, a double cycle (4 scans) was carried out. Data analysis was carried out within Microsoft Excel using the DVS Analysis Suite.

[4] = Competitive slurry experiments between Form I and Form II
Protocol: Competitive slurry experiments between Form I and Form II in different solvents were conducted. Form I was suspended in the selected solvents at both 50° C. and 5° C. and stirred for a minimum of 1 hour before filtration to create a saturated solution. Form I (ca. 10 mg) and Form II (ca. 10 mg) were combined in a HPLC vial. Each sample was treated with 0.5 ml of the selected saturated solution. The samples were stirred at the selected temperature for 6 days. Solids obtained were filtered and dried under suction for a few minutes prior to characterization. Samples were slightly wet during XRPD analysis.

Row | SMILES | changes in XRPD patterns after storage ([1]; 7 days at 25° C./97% RH) | changes in XRPD patterns after storage ([1]; 7 days at 40° C./75% RH) | relative stability of form ([2]; isothermal maturation, 50° C., 6 days, various solvents) | relative stability of form ([2]; liquid assisted grinding, 500 rpm, 2 hour, various solvents) | relative stability of form ([2]; temperature cycling maturation RT/50° C., 2 days, and anti-solvent screen) | moisture uptake as determined by DVS [3] [% w/w] | XRPD analysis (form after slurry) ([4]; Sample 01, MeCN, 5 °C, 6 days) | XRPD analysis (form after slurry) ([4]; Sample 02, n-propyl acetate, 5 °C, 6 days) | XRPD analysis (form after slurry) ([4]; Sample 03, MEK, 5 °C, 6 days) | XRPD analysis (form after slurry) ([4]; Sample 04, H2O:MeCN (25:75), 5 °C, 6 days) | XRPD analysis (form after slurry) ([4]; Sample 05, H2O:MeCN (75:25), 5 °C, 6 days) | XRPD analysis (form after slurry) ([4]; Sample 06, MeCN, 50 °C, 6 days) | XRPD analysis (form after slurry) ([4]; Sample 07, n-propyl acetate, 50 °C, 6 days) | XRPD analysis (form after slurry) ([4]; Sample 09*, H2O:MeCN (25:75), 50 °C, 6 days, also treated with neat solvent) | XRPD analysis (form after slurry) ([4]; Sample 10, H2O:MeCN (75:25), 50 °C, 6 days) | XRPD analysis (form after slurry) ([4]; Sample 11, MEK, 50 °C, 6 days (repeat of 08)) | XRPD analysis (form after slurry) ([4]; Sample 12, H2O:MeCN (25:75), 50 °C, 6 days (repeat of 09))
1 | CC(C)c1nc(-c2ccc3c(c2)CC[C@H]3NC(=O)c2nnn(C)n2)no1 [Form I, (R)—N-(5-(5-isopropyl-1,2,4-oxadiazol-3-yl)-2,3-dihydro-1H-inden-1-yl)-2-methyl-2H-tetrazole-5-carboxamide] | No significant changes | No significant changes | most stable form | most stable form | most stable form | 0.36 |  |  |  |  |  |  |  |  |  |  | 
2 | CC(C)c1nc(-c2ccc3c(c2)CC[C@H]3NC(=O)c2nnn(C)n2)no1 [Form I and Form II, (R)—N-(5-(5-isopropyl-1,2,4-oxadiazol-3-yl)-2,3-dihydro-1H-inden-1-yl)-2-methyl-2H-tetrazole-5-carboxamide] |  |  |  |  |  |  | Form 1 | Form 1 | Form 1 | Form 1 | Form 1 | Form I | Form I | Form I | Form I | Form I | Form I
3 | CC(C)c1nc(-c2ccc3c(c2)CC[C@H]3NC(=O)c2nnn(C)n2)no1 [Form II, (R)—N-(5-(5-isopropyl-1,2,4-oxadiazol-3-yl)-2,3-dihydro-1H-inden-1-yl)-2-methyl-2H-tetrazole-5-carboxamide] | No significant changes | No significant changes |  |  |  | 0.24 |  |  |  |  |  |  |  |  |  |  | 

Reference: patent US12649732B2, “Polymorphs of (R)-N-(5-(5-isopropyl-1,2,4-oxadiazol-3-yl)-2,3-dihydro-1H-inden-1-yl)-2-methyl-2H-tetrazole-5-carboxamide” (Cytokinetics, Inc., priority 2019, dated 2026)
